Assay results as given in patent publication US20020082254A1, “Compounds for treating disorders where a decreased level of plasma FFA is desired” (priority 2000, published 2002).
Where two headings read alike, the source gives them in different places.

How the values were obtained:
[1] = molecular target: T1, Hormone-sensitive lipase (HSL) (Homo sapiens, UniProt Q05469); experiment: Hormone-sensitive lipase (HSL) inhibition assay, 3H-labeled triolein or MOME substrate; format: biochemical
T1 sequence (Q05469 1-1076): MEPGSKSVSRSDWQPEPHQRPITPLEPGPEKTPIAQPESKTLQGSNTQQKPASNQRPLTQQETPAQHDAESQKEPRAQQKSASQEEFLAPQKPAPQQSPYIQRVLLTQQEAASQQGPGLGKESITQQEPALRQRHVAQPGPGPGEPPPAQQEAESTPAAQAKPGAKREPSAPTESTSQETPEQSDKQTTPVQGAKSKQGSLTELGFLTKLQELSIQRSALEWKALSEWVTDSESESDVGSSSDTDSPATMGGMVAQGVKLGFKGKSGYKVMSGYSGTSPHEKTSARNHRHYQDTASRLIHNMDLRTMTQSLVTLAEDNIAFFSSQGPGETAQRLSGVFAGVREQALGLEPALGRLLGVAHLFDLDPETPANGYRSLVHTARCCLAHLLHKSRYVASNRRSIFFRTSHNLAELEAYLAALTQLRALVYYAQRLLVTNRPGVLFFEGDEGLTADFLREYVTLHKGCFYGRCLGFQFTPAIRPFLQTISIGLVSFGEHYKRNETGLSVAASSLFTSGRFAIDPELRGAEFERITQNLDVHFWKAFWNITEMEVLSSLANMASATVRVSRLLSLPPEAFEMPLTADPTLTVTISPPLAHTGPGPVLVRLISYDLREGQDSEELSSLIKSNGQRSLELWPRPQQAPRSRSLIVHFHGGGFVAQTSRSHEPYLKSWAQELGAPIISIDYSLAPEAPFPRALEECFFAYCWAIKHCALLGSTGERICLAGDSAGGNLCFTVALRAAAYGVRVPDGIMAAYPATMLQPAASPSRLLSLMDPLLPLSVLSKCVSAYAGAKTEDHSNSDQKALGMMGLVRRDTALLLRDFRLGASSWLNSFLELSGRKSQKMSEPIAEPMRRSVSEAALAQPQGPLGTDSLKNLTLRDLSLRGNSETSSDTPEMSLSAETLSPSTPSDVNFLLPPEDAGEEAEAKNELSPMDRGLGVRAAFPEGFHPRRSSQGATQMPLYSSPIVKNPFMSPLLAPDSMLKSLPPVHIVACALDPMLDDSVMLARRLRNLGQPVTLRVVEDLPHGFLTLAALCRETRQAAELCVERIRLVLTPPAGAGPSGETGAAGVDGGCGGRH
Description: Hormone-sensitive lipase (HSL) [classified as a triacylglycerol lipase, EC 3.1.1.3, in accordance with the Recommendations of the Nomenclature Committee of the International Union of Biochemistry and Molecular Biology (available on the World Wide Web at the following address: http://www.chem.qmw.ac.uk/iubmb/enzyme/)]
Materials. The Hormone-sensitive lipase employed was provided by Dr. Cecilia Holm of Lund University, Sweden, or produced and purified by Novo Nordisk (NN) using the reagents and protocols employed by Dr. Holm. The substrates used are: ^3H-labeled triolein (TO) from Amersham, Buckinghamshire, U.K. cat No. TRA191; 5-20 Ci/mmol dissolved in toluene, triolein (Sigma, Cat. No. T-1740) and mono-oleoyl-2-O-mono-oleylglycerol (MOME) synthesized at (NN) using the protocols provided by Dr. Cecilia Holm, Lund University, Sweden. Phosphatidyl choline (PC) and phosphatidyl inositol (PI) are from Sigma (St Luis Mo., cat. Nos. P-3556 and P-5954, respectively). All other reagents are of commercial grade and obtained from various commercial sources.
Methods. The preparation of the substrates is as follows:
TO: 30 μl PC:PI (20 mg/ml solution of PC:PI 3:1 prepared in chloroform)+128 μl cold TO+15 μl ^3H-TO
MOME: 30 μl PC:PI+100 μl cold MOME+200 μl ^3H-MOME
They are then evaporated under a gentle stream of N2 followed by 20-30 minutes in a Speedvac™ apparatus to ensure the absence of residual solvent.
The samples are prepared as follows:
Samples/controls: 78 μl PED-BSA+20 μl inhibitor (various concentrations)+2 μl HSL (undiluted 0.12 mg/ml). If no inhibitors are being tested, the reaction contains 98 μl PED-BSA+2 μl HSL.
The samples are put on ice and then sonicated as follows:
With TO as substrate, add 2 ml potassium buffer (0.1M potassium phosphate, pH 7) and then sonicate twice for 1 minute, with a 1-minute interval between cycles. Add an additional 1 ml potassium buffer and sonicate 4 times for 30 seconds, with a 30 second interval in between cycles. To finish, add 1 ml BSA 20%-in potassium buffer, mix by inversion and store on ice until use.
With MOME as substrate: add 2 ml potassium buffer and then sonicate twice for 1 minute, with a 1 minute interval between cycles. Add 1.6 ml potassium buffer and sonicate 4 times for 30 seconds, with a 30-second interval between cycles. To finish, add 0.4 ml BSA 20%-buffer, mix by inversion and store on ice until use.
The enzyme reaction is run at 37° C. The substrate mix is added to the various reactions at 10 second intervals, incubated for 30 minutes in a water bath and then stopped with 3.25 ml of a solution containing CH3OH:CHCl3:heptane (10:9:7). After the addition of 1.05 ml potassium buffer pH10.5, the sample is vortexed thoroughly and centrifuged for 20 min at 2000 r.p.m. One ml of the upper phase is added to 10 ml scintillation fluid, and mixed thoroughly by shaking.
The samples are then counted, 5 min per vial, in a scintillation counter.

[2] = molecular target: T2, Lipoprotein lipase (LPL) (Bos taurus, UniProt P11151); experiment: Lipoprotein lipase (LPL) inhibition assay, 3H-triolein/intralipid substrate; format: biochemical; conditions: read-out: LPL inhibition (% inh. at 50 μM)
T2 construct: Dr. Gunilla Olivecrona, Umea University (gift)
T2 sequence (P11151 29-478): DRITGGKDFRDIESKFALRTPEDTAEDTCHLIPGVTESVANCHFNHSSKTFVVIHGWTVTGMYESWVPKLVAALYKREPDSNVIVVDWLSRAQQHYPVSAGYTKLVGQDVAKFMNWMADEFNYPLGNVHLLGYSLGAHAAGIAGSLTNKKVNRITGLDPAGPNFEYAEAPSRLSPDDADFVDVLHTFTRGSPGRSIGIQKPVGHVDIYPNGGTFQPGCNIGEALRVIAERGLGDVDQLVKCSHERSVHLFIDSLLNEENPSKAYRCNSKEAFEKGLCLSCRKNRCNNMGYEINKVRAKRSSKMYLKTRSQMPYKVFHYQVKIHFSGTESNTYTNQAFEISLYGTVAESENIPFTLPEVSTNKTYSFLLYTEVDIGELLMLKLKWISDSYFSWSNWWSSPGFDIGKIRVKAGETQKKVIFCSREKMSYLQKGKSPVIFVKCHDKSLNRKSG
Description: Lipoprotein Lipase (LPL) [Classified as EC 3.1.1.34 in accordance with the Recommendations of the Nomenclature Committee of the International Union of Biochemistry and Molecular Biology (available on the World Wide Web at the following address: http://www.chem.qmw.ac.uk/iubmb/enzyme/)]
Materials. The lipoprotein lipase employed was obtained from Dr. Gunilla Olivecrona of Umea University, Sweden. ^3H-triolein (TO) from Amersham, Buckinghamshire, U.K., cat No. TRA191; 5-20 Ci/mmol dissolved in toluene. Intralipid is from Kabi-Fresenius). Apo CII was obtained from PMSF-treated plasma from overnight fasted rats. All other reagents are of commercial grade and obtained from various commercial sources.
Methods. The preparation of the substrate is as follows:
25 μl of ^3H-Triolein evaporated under a gentle stream of N2 in a 27° C. room in 4 ml chromacol glass followed by the addition of 1 ml 10% intralipid. This is mixed and sonicated on ice for 5 minutes (50% pulse mode). This can be kept for 1 week at 4° C.
100 μl assay medium (0.3M Tris-Cl, 0.2M NaCl, 0.2 mg heparin/ml and 120 mg BSA/ml (fraction V, Sigma no. 3401, pH 8.5))
All mixed in a 13×100 mm glass tube and incubated for at least 5 minutes.
2. Add 5 μl LPL (of a solution containing 500 mU/mg)
Mix and incubate for 30 minutes at 25° C.
3. The reaction is stopped with 3.25 ml of a solution containing Methanol:chloroform:heptan 10:9:7. Add 1.05 ml buffer (100 mM Boric acid, 100 mM potassium carbonate pH 10.5) and mix 10 seconds per vial.
5. Take 1 ml of the upper phase+10 ml scintillation fluid and mix
6. Scintillation count for 5 minutes per vial.

[3] = read-out: HSL inhibition (IC50)

SMILES | IC50 [1, 3] [nM] | inhibition at 50 µM [2] [%] | IC50 [1] [nM]
COc1ccccc1OC(=O)NN1CCc2ccccc2C1 [Example 2, (3,4-Dihydro-1H-isoquinolin-2-yl)-carbamic acid 2-methoxy-phenyl Ester] | 6400 | 2 | 
COc1ccc(OC(=O)NN2CCc3ccccc3C2)cc1 [Example 3, (3,4-Dihydro-1H-isoquinolin-2-yl)-carbamic acid 4-methoxy-phenyl Ester] | 360 | 0 | 
COC(=O)c1ccc(OC(=O)NN2CCc3ccccc3C2)cc1 [Example 4, 4-(3,4-Dihydro-1H-isoquinolin-2-ylcarbamoyloxy)-benzoic Acid Methyl Ester] | 9900 | 20 | 
O=C(NN1CCc2ccccc2C1)Oc1ccc(Br)cc1 [Example 5, (3,4-Dihydro-1H-isoquinolin-2-yl)-carbamic acid 4-bromo-phenyl Ester] | 39 | 7 | 
O=C(NN1CCc2ccccc2C1)Oc1ccc(F)cc1 [Example 7] | 460 | 0 | 
Cc1ccc(OC(=O)NN2CCc3ccccc3C2)cc1 [Example 8, (3,4-Dihydro-1H-isoquinolin-2-yl)-carbamic Acid p-tolyl Ester] | 30 | 1 | 
Cc1ccccc1OC(=O)NN1CCc2ccccc2C1 [Example 9, (3,4-Dihydro-1H-isoquinolin-2-yl)-carbamic Acid o-tolyl Ester] | 1600 | 7 | 
Cc1cccc(OC(=O)NN2CCc3ccccc3C2)c1 [Example 10, (3,4-Dihydro-1H-isoquinolin-2-yl)-carbamic Acid m-tolyl Ester] | 670 | 5 | 
O=C(NN1CCc2ccccc2C1)Oc1c(Cl)cccc1Cl [Example 11, (3,4-Dihydro-1H-isoquinolin-2-yl)-carbamic Acid 2.6-dichloro-phenyl Ester] | > 10000 | 7 | 
O=C(NN1CCc2ccccc2C1)Oc1ccc(C(F)(F)F)cc1 [Example 13, (3,4-Dihydro-1H-isoquinolin-2-yl)-carbamic Acid 4-trifluoromethyl-phenyl Ester] | 45 | 3 | 
O=C(NN1CCc2ccccc2C1)Oc1ccccc1Br [Example 14, (3,4-Dihydro-1H-isoquinolin-2-yl)-carbamic Acid 2-bromo-phenyl Ester] | 800 | 7 | 
O=C(NN1CCc2ccccc2C1)Oc1ccccc1F [Example 15, (3,4-Dihydro-1H-isoquinolin-2-yl)-carbamic Acid 2-fluoro-phenyl Ester] | 1500 | 0 | 
COc1cc2c(cc1OC)CN(NC(=O)Oc1ccc(Cl)cc1)CC2 [Example 16, (6,7-Dimethoxy-3.4-dihydro-1H-isoquinolin-2-yl)-carbamic Acid 4-chloro-phenyl Ester] | 1400 | 0 | 
CCC(=O)c1ccc(OC(=O)NN2CCc3ccccc3C2)cc1 [Example 24] | > 10000 |  | 
CC(=O)Nc1ccc(OC(=O)NN2CCc3ccccc3C2)cc1 [Example 25] | > 10000 |  | 
Cc1ccc(C(=O)c2ccc(OC(=O)NN3CCc4ccccc4C3)cc2)cc1 [Example 26] | > 10000 |  | 
CN(C)CCc1ccc(OC(=O)NN2CCc3ccccc3C2)cc1 [Example 34] | > 10000 |  | 
O=C(NN1CCc2ccccc2C1)Oc1ccc(-c2ccccc2)cc1 [Example 36] | > 10000 |  | 
O=C(NN1CCc2ccccc2C1)Oc1ccc(C(=O)c2ccccc2)cc1 [Example 41] | > 10000 |  | 
O=C(NN1CCc2ccccc2C1)Oc1ccc(C(=O)CCCCl)cc1 [Example 44] | > 10000 |  | 
CC(=O)c1ccc(OC(=O)NN2CCc3ccccc3C2)cc1 [Example 45] | > 10000 |  | 
O=C(NN1CCc2ccccc2C1)Oc1ccc(Cl)c(C(F)(F)F)c1 [Example 47] | > 10000 |  | 
O=C(NN1CCCCC1)Oc1ccc(Cl)cc1 [Example 48, Piperidin-1-yl-carbamic Acid 4-chloro-phenyl Ester] |  |  | 50
O=C(NN1CCOCC1)Oc1ccc(Cl)cc1 [Example 49, Morpholin-4-yl-carbamic Acid 4-chloro-phenyl Ester] |  |  | 100
S=C(NN1CCc2ccccc2C1)Sc1ccccc1 [Example 50, (3,4-Dihydro-1H-isoquinolin-2-yl)-dithiocarbamic Acid Phenyl Ester] | > 10000 |  | 
